{"source": "patent EP1635833B1", "about": "(priority 2003, dated 2004)", "key": {"[1]": {"system": "opioid-induced PCO2 increases", "conditions": "guinea pig, in vivo"}, "[2]": {"system": "opioid-induced PCO2 increases", "conditions": "rat, in vivo"}, "[3]": {"system": "acetone-induced lifting behaviour", "experiment": "Tolerance in a chronic neuropathic pain model (CCI gerbils, acetone spray test)", "format": "in vivo", "conditions": "11 days"}, "[4]": {"system": "ricinus oil-induced diarrhea", "conditions": "rat, in vivo"}, "charcoal propulsion [5]": {"system": "charcoal propulsion", "conditions": "in vivo"}, "[6]": {"system": "opioid-induced PCO2 increases", "conditions": "in vivo"}, "[7]": {"system": "ricinus oil-induced diarrhea", "conditions": "in vivo"}, "[8]": {"system": "ricinus oil-induced diarrhea", "experiment": "whole plant or invertebrate", "conditions": "in Meriones unguiculatus, sc, 8 h, read-out: ED50 to postpone the ricinus oil-induced diarrhea"}, "[9]": {"system": "ricinus oil-induced diarrhea", "experiment": "whole plant or invertebrate", "conditions": "in Rattus norvegicus, sc, 4 h, read-out: ED50 to postpone the ricinus oil-induced diarrhea"}, "charcoal propulsion [10]": {"system": "charcoal propulsion", "experiment": "animal or person", "format": "in vivo, rats", "conditions": "Rattus norvegicus, sc, read-out: ED50 for an inhibition of charcoal propulsion (<60 %)"}}, "note": "Where two headings read alike, the source gives them in different places."}
{"smiles": "Cc1cccc(C)c1NC(=O)CN1CCN(C2CCN(C(=O)c3cc(C(F)(F)F)cc(C(F)(F)F)c3)C(Cc3ccccc3)C2)CC1", "note": "(single isomer, unassigned; (+)) [Compound 95, (+)-(B)-trans-4-[1-[3,5-bis(trifluoromethyl)benzoyl]-2-(phenylmethyl)-4-piperidinyl]-N-(2,6-dimethylphenyl)-1-piperazine acetamide, (L)-malic acid (1:1)]", "values": [{"measurement": "reduction of the frequency of retches, vomiting and periods of emesis", "setting": "morphine-induced emesis; at 0.4 mg/kg morphine (submaximal dose)", "value": "non-significant tendency"}, {"measurement": "doses with activity on periods of emesis", "setting": "morphine-induced emesis; at 0.8 mg/kg morphine", "value": "≥ 2.5", "unit": "mg/kg"}, {"measurement": "number (frequency) of vomits", "setting": "morphine-induced emesis; at 0.8 mg/kg morphine, 10 mg/kg Compound 95 i.p.", "value": "diminished significantly"}, {"measurement": "number of retches", "setting": "morphine-induced emesis; at 0.8 mg/kg morphine, doses of 10 and 40 mg/kg i.p. Compound 95", "value": "significantly reduced"}, {"measurement": "PCO2 values", "setting": "[1]", "value": "did not affect PCO2 values"}, {"measurement": "opioid-induced PCO2 levels", "setting": "[1]", "value": "reductions in the opioid-induced PCO2 levels"}, {"measurement": "number of animals reaching high (>50 mm Hg) levels of PCO2", "setting": "[2]", "value": "reduced"}, {"measurement": "PCO2 levels", "setting": "[2]; sc, 40 mg/kg", "value": "did not affect the PCO2 levels"}, {"measurement": "acetone-induced lifting behaviour", "setting": "[3]; 2.5 mg/kg Compound 95 i.p. twice daily alone", "value": "limited activity"}, {"measurement": "acetone-induced lifting behaviour, activity over time", "setting": "[3]; 2.5 mg/kg Compound 95 with 2.5 mg/kg morphine i.p. twice daily", "value": "the activity remained present over the entire testing period"}, {"measurement": "effect of adding Compound 95 on the ED50s of the opioids", "setting": "[4]", "value": "did not alter"}, {"measurement": "effects on constipation", "setting": "[4]", "value": "minimal effects"}, {"measurement": "effect of adding Compound 95 on the outcome of the opioids", "setting": "charcoal propulsion [5]", "value": "did not affect the outcome of the opioids"}, {"measurement": "inhibition of the charcoal propulsion", "setting": "charcoal propulsion [5]", "value": "inactive"}, {"measurement": "PCO2 values", "setting": "[6]", "value": "no effects were observed"}, {"measurement": "opioid-induced PCO2 levels", "setting": "[6]", "value": "significant decreases"}, {"measurement": "effect of adding Compound 95 on the ED50s of the opioids", "setting": "[7]", "value": "did not alter"}, {"measurement": "effects on constipation", "setting": "[7]", "value": "minimal effects"}]}
{"smiles": "COc1ccc2c3c1O[C@H]1[C@@H](O)C=C[C@H]4[C@@H](C2)N(C)CC[C@@]341", "note": "[Codeine, codeine]", "values": [{"measurement": "ED50", "setting": "[8]", "value": 1.67, "unit": "mg/kg"}, {"measurement": "inhibition of the ricinus oil -induced diarrhea", "setting": "[7]", "value": "dose-dependent inhibition"}]}
{"smiles": "CN1CC[C@]23c4c5ccc(O)c4O[C@H]2[C@@H](O)C=C[C@H]3[C@H]1C5", "note": "[Morphine, morphine]", "values": [{"measurement": "doses causing central side-effects", "setting": "morphine-induced emesis; in vivo, ip", "value": "> 0.8", "unit": "mg/kg"}, {"measurement": "ED50", "setting": "[9]", "value": 2.19, "unit": "mg/kg"}, {"measurement": "PCO2", "setting": "[1]; sc", "value": "increase in PCO2"}, {"measurement": "levels of Pco2", "setting": "[2]", "value": "increased levels of Pco2"}, {"measurement": "inhibition of the ricinus oil -induced diarrhea", "setting": "[4]", "value": "dose-dependent inhibition"}, {"measurement": "ED50", "setting": "charcoal propulsion [10]", "value": 1.66, "unit": "mg/kg"}, {"measurement": "inhibition of the ricinus oil -induced diarrhea", "setting": "[7]", "value": "dose-dependent inhibition"}]}
{"smiles": "COc1ccc2c3c1O[C@H]1C(=O)CC[C@@]4(O)[C@@H](C2)N(C)CC[C@]314", "note": "[Oxycodone, oxycodone]", "values": [{"measurement": "inhibition of the ricinus oil -induced diarrhea", "setting": "[7]", "value": "dose-dependent inhibition"}]}
